The values that follow come from US8673914B2, “Use of phosphodiesterase inhibitors for treating multidrug resistance” (St. John's University, priority 2011, dated 2014).

Marks after values point to notes of the source that are not given here.

Data set [1] can be described thus: MTT cytotoxicity/reversal assay (Example 1). Particulars: human. Put shortly: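 HEK293 cells transfected with MRP1 or ABCB1 seeded at 8×10^3 cells/well, grown in DMEM with 10% bovine serum at 37 °C, 5% CO2. MTT added after 68 h, 4 h further incubation, absorbance at 570 nm. IC50 by Bliss method; reversal fold = anticancer drug IC50 without versus with reversal agent.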

Another data set has as its system KB-3-1. Briefly: MTT cytotoxicity/reversal assay (Example 2). Type of data set: cell-based, human. Particulars: alone. The method, then: (§1) The ABCB1-overexpressing drug resistant cell line KB-V1 (generously provided by Dr. Gottesman, NCI, NIH) was established by a stepwise concentration increase of vinblastine in the culture medium of KB-3-1 cells and subsequently culturing these cells in medium with 1 μg/mL of vinblastine. An ABCC1-overexpressing MDR cell line, KB-CV60, was also derived from KB-3-1 cells and was maintained in medium with 1 μg/mL of cepharanthine and 60 ng/mL of vincristine. Both KB-C2 and KB-CV60 cell lines were kindly provided by Dr. Akiyama (Kagoshima University, Japan). HEK293/pcDNA3.1, ABCG2-482-R5, ABCG2-482-G2, and ABCG2-482-T7 cells were established by selection with 2 mg/mL G418 after transfecting HEK293 with either (1) empty pcDNA3.1 vector or (2) pcDNA3.1 vector containing full length ABCG2 coding either (2a) wild-type arginine (R) or mutant (2b) glycine (G) or (2c) threonine (T) at amino acid position 482, respectively. The wild-type ABCG2-overexpressing drug-resistant cell line MCF-7/Flv1000 was cultured in the medium with 1 μM of flavopiridol. […] Another G482 mutant ABCG2-overexpressing drug resistant cell line, S1-M1-80, was maintained in the medium with 80 μM of mitoxantrone. […] All the cell lines were grown as adherent monolayers in flasks with DMEM (Dulbecco's modified Eagle's medium) culture medium (Hyclone Co.) containing 10% bovine serum at 37° C. in a humidified atmosphere of 5% CO2.
(§2) Cells in 96-well plates were preincubated with or without the reversal agents for 1 h and then different concentrations of chemotherapeutic drugs were added into designated wells. After 68 h of incubation, MTT solution (4 mg/mL) was added to each well, and the plate was further incubated for 4 h, allowing viable cells to change the yellow-colored MTT into dark-blue formazan crystals. Subsequently the medium was discarded, and […] of DMSO was added into each well to dissolve the formazan crystals. The absorbance was determined at 570 nm by an OPSYS MR Microplate Reader from DYNEX Technologies, Inc.

A further data set has as its system KB-C2. Briefly: MTT cytotoxicity/reversal assay (Example 2). Type of data set: cell-based, human. The settings on record: alone. Here is the method:
as §1, §2

Data set [2] can be described thus: MTT cytotoxicity assay (Example 4). The format is cell-based. Particulars: human; HEK/MRP7; alone; read-out: IC50 of paclitaxel. The procedure, abridged:
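MTT viability assay in HEK293 cells carrying empty pcDNA3.1 or MRP7-transfected (G418-selected), seeded at 6000 cells/well in triplicate. Drug exposure 68 h. IC50 from survival curves by Bliss method.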

The next data set has as its system any cell lines tested. Briefly: MTT assay, vardenafil or tadalafil alone. The format is cell-based. The settings on record: concentrations of up to 20 μM. Here is the method: The MTT assay was used to assess cytotoxicity. The cultured cells were harvested with trypsin and resuspended in a final concentration of 4×10^3 cells/well for KB-3-1; 7.5×10^3 cells/well for KB-C2; and 8×10^3 for all of the other cell lines used in this study. Cells were seeded evenly in 96-well multiplates. […] After 68 h of incubation, 20 μl of the MTT solution (4 mg/ml) was added to each well, and the plate was further incubated for 4 h at 37° C., allowing viable cells to convert the yellow-colored MTT into dark-blue formazan crystals. Subsequently, the medium was discarded, and 100 μl of DMSO was added into each well to dissolve the formazan crystals, generating purple color. The absorbance was determined at 570 nm by an OPSYS Microplate Reader from DYNEX Technologies, Inc. (Chantilly, Va.). […] The degree of the reversal of multidrug resistance (MDR) was calculated by dividing the IC50 of an anticancer drug, e.g., an antineoplastic or chemotherapeutic drug (agent, compound), in a cell type in the absence of a reversal agent by the IC50 of the anticancer drug in the same cell type in the presence of the reversal agent. The IC50 values were calculated from survival curves using the Bliss method.

Data set [3] deals with ABCB1 expression in KB-C2 cells. Briefly: Western blot and immunofluorescence of ABCB1. The format is cell-based, human. Particulars: for protein level of ABCB1 (Western blot): 10 μM, 36 and 72 h; for expression of ABCB1 in the membrane (immunofluorescence): 72 h. Here is the method: Following incubation, the cells were harvested and rinsed twice with ice-cold PBS, and total cell lysates were collected with cell lysis buffer (1×PBS, 1% Nonidet P-40, 0.5% sodium deoxycholate, 0.1% SDS, 100 μg/ml phenylmethylsulfonyl fluoride, 10 μg/ml aprotinin, 10 μg/ml leupeptin) for 30 min with gentle rocking, and clarified by centrifugation at 12,000 rpm for 10 min at 4° C. Equal amounts (100 μg of protein) of cell lysates were resolved by sodium dodecyl sulfate polyacrylamide gel electrophoresis (SDS-PAGE) and electrophoretically transferred onto polyvinylidene fluoride (PVDF) membranes. After incubation in a blocking solution containing 5% nonfat milk in TBST buffer (10 mM Tris-HCL (pH 8.0), 150 mM NaCl, and 0.1% Tween 20) for 1 h at room temperature, membranes were immunoblotted overnight with primary monoclonal antibodies C219 (1:200) against ABCB1, or 14C10 (1:200) against GAPDH, at 4° C. Subsequently, the membranes were washed three times for 15 min with TBST buffer and incubated at room temperature for 2 h with HRP-conjugated secondary antibody at 1:1000 dilutions. The membranes underwent three additional washes for 15 min with TBST buffer and the protein-antibody complexes were visualized by the enhanced PHOTOTOPE® HRP Detection Kit (Cell Signaling Technology, Inc.) and exposed to Kodak medical X-ray processor (Eastman Kodak Co., Rochester, N.Y.). […] Propidium iodide was used for nuclear staining.

The next data set relates to KB-3-1 cells. Briefly: [^3H]-paclitaxel efflux (Example 1). The format is cell-based, human. The settings on record: absence or presence of vardenafil. Here is the method:
The cells were washed three times with ice-cold PBS, then suspended in fresh medium with or without reversal agents at 37° C. […] Each sample was placed in scintillation fluid and the radioactivity was measured in a Packard TRI-CARB1 1900CA liquid scintillation analyzer from Packard Instrument Company, Inc. (Downers Grove, Ill.).

For `CC(=O)O[C@H]1C(=O)[C@@]2(C)[C@H]([C@H](OC(=O)c3ccccc3)[C@]3(O)C[C@H](OC(=O)[C@H](O)[C@@H](NC(=O)c4ccccc4)c4ccccc4)C(C)=C1C3(C)C)[C@]1(OC(C)=O)CO[C@@H]1C[C@@H]2O` [Paclitaxel, paclitaxel], the results for the IC50 at 68 h in data set [1] and in data set [2] were 219 ± 13.2 µM and 0.107 ± 0.0112 µM, respectively. In addition, the entries for the “fold-resistance, paclitaxel” value with KB-3-1 and with KB-C2 were “(1.0)^c” and “(788.5)”, respectively.

Regarding `CN1CC(=O)N2[C@H](c3ccc4c(c3)OCO4)c3[nH]c4ccccc4c3C[C@@H]2C1=O` [Tadalafil, tadalafil], the “growth inhibition by the PDE5 inhibitor alone” value in the data set with any cell lines tested is reported as “neither vardenafil nor tadalafil inhibited the growth of any cell lines tested”. Besides, in data set [3], the “protein level of ABCB1 (Western blot)” value is “not significantly altered” and the “expression of ABCB1 in the membrane (immunofluorescence)” value is recorded as “neither vardenafil nor tadalafil altered the expression of ABCB1 in the membrane”.

Take `CCCc1nc(C)c2c(=O)[nH]c(-c3cc(S(=O)(=O)N4CCN(CC)CC4)ccc3OCC)nn12` [Vardenafil, vardenafil]: the “growth inhibition by the PDE5 inhibitor alone” value in the data set on any cell lines tested was “neither vardenafil nor tadalafil inhibited the growth of any cell lines tested”. For the same molecule, in data set [3], the “protein level of ABCB1 (Western blot)” value is “not significantly altered” and the “expression of ABCB1 in the membrane (immunofluorescence)” value is on record as “neither vardenafil nor tadalafil altered the expression of ABCB1 in the membrane”. Further, in the data set on KB-3-1 cells, the “change in effluxed paclitaxel” value is on record as “No significant change”.
